Experimental data as given in patent US9630914B2, “Multitarget FAAH and COX inhibitors and therapeutical uses thereof” (FONDAZIONE ISTITUTO ITALIANO DI TECNOLOGIA, priority 2012, dated 2017).
pIC50: −log10 of the molar value. Like-named read-outs stand apart in the source and are kept apart here.

Legend:
[1] = tested on: carrageenan-induced inflammation and hyperalgesia; experiment: Carrageenan test (paw edema and thermal hyperalgesia); format: in vivo, mice
Description: (§1) Male CD1 mice, weighing 25-30 g, (Charles River, Calco, Italy) were used. Procedures were in accordance with the Ethical Guidelines of the International Association for the Study of Pain and were approved by Italian regulations on protection of animals used for experimental and other scientific purposes (D. M. 116192) as well as with European Economic Community regulations (O. J. of E. C. L 358/1 Dec. 18, 1986). Mice were housed in groups of 5 in ventilated cages containing autoclaved cellulose paper as nesting material, with free access to food and water. They were maintained under a 12 h light/dark cycle (lights on at 08:00 a.m.), at controlled temperature (21±1° C.) and relative humidity (55±10%). The animals are randomly divided in groups of 6 mice. Behavioral testing was performed between 9:00 a.m. and 5:00 p.m. Scientists running the experiments were not aware of the treatment protocol at the time of the test (blind procedure).
The pro-inflammatory agent λ-carrageenan (1% weight-vol^−1 in sterile water, 50 μL) was injected into the left hind paw of slightly restrained mice, and paw volume was measured with a plethysmometer (Ugo Basile, Comerio, Italy), while thermal hyperalgesia was assessed by the method of Hargreaves et al. (1988), measuring the latency to withdraw the hind paw from a focused beam of radiant heat (thermal intensity: infrared 3.0) in a plantar test apparatus (Ugo Basile, Comerio, Italy). Cutoff time was set at 30 s. Withdrawal latencies were measured on both ipsilateral and contralateral paws at various time points after drug administration.
Drug solutions were prepared immediately before use in saline containing 10% PEG-400 and 10% Tween 80 and orally administered in a volume of 2.5 mL-kg^−1 before intraplantar injection of carrageenan.
Results are expressed as the mean±S.E.M., or 95% confidence limits (95% CL). Efficacy data were compared using two-way analysis of variance (ANOVA) followed by Bonferroni's test for multiple comparisons. For gastric toxicity, the significance of differences between groups was determined by one-way ANOVA followed by a Bonferroni's test for multiple comparisons.

gastric mucosa = experiment: Gastric lesions (gastric irritation, ulceration index); format: in vivo; conditions: food-deprived mice
Description: as §1
To study the gastric irritation the protocol of Chan et al. (1995) was followed. […] After 4 h, the mice were killed by CO2 asphyxiation. The stomachs were removed, opened, rinsed in PBS, and the stomach lining was photographed. Scoring was done by observers blinded to experimental conditions, as previously reported (Jain et al., 2002): red coloration=0.5; spot ulcers=1; hemorrhagic streaks=1.5. […]

ovine COX-1 = ovine COX-1 (Ovis aries (Sheep), UniProt P05979); experiment: In vitro COX assay (COX Inhibitor Screening Assay Kit), COX-1; format: biochemical; conditions: 5 μM arachidonic acid
ovine COX-1, sequence (P05979 25-600): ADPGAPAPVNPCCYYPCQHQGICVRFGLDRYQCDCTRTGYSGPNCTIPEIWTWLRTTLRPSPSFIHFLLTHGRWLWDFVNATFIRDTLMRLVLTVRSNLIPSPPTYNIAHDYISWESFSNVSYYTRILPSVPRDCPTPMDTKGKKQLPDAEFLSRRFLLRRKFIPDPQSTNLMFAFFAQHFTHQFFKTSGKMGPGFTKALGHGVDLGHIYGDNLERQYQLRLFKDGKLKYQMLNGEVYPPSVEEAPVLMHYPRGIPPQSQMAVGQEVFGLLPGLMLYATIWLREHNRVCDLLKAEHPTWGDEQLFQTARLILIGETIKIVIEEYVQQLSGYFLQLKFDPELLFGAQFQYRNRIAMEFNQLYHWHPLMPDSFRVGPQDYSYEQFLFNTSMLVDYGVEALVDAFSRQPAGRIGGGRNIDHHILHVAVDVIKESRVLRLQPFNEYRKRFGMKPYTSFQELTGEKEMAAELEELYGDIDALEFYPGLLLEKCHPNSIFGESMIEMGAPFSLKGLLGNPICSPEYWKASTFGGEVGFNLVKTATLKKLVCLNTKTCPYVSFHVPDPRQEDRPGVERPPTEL
Method: COX activity was measured using a commercial kit (COX Inhibitor Screening Assay Kit—Cayman Chemical N. 560131) which includes both ovine COX-1 and human recombinant COX-2 enzymes. Inhibitors were pre-incubated with either ovine COX-1 or human COX-2 in order to screen isozyme-specific inhibition. Differently than described in the kit protocol, the reaction was carried out in the presence of 5 μM arachidonic acid while for the blank sample (no activity) the two enzymes were inactivated for 40 minutes at 100° C. It was then measured the amount of PGF2α produced by reduction with SnCl2 of COX-derived PGH2, via enzyme immunoassay (EIA) using a PG-specific antibody and competing with a PG-acetylcholinesterase conjugate.
Absorbance was measured at 412 nm with a Tecan Infinite M200 plate reader and data were processed according to manufacturer's instructions.
The median inhibitory concentrations (IC50) were determined by non-linear regression analysis of the Log [concentration]/response curves generated with mean replicate values using a four parameter Hill equation curve fitting with GraphPad Prism 5 (GraphPad Software Inc., CA-USA).

FAAH = conditions: literature value; cited from earlier work
[2] = oral, 3, 10, 30 and 100 mg/kg, mouse

CC(C(=O)O)c1ccc(-c2ccccc2)c(F)c1 (stereo not shown) [Compound A, flurbiprofen, reference compound]
ED50 ([1]; oral, mouse carrageenan model, read-out: ED50 on edema (Δ volume paw)): 30 mg/kg | ED50 ([1]; oral, mouse carrageenan model, read-out: ED50 on thermal hyperalgesia (withdrawal latency)): 30 mg/kg | gastric irritation and gastric ulcers (gastric mucosa; oral 30 mg/kg): profound gastric irritation and appearance of gastric ulcers

CCCCCCNC(=O)Oc1cccc(-c2ccc(C(C)C(=O)O)cc2F)c1 (stereo not shown) [Example 12, 2-[3-fluoro-4-[3-(hexylcarbamoyloxy)phenyl]phenyl]propanoic acid]
ED50 ([1]; Mus musculus, read-out: ED50 on edema (Δ volume paw)): 10 mg/kg | ED50 ([1]; Mus musculus, read-out: ED50 on thermal hyperalgesia (withdrawal latency)): 10 mg/kg | effect on carrageenan-induced inflammation and hyperalgesia [1, 2]: dose-dependent and persistent suppression | potency at inhibiting the responses induced by carrageenan, compared with compound A [1, 2]: more potent than oral compound A | ulcerogenic effect (gastric mucosa; oral, up to 100 mg/kg): no ulcerogenic effect | pIC50 (ovine COX-1): 7.92

Cc1cccnc1NC(=O)C(C)c1ccc(CC(C)C)cc1 (stereo not shown) [Ibu-am5]
pIC50 (FAAH): 5.57
